# Assay results as given in patent US7256211B1, “8-azaprostaglandin derivatives and medical use thereof” (ONO Pharmaceutical Co., Ltd., priority 2003, dated 2007).
# Target: T1, EP4 receptor (Mus musculus, UniProt P32240)
# T1 construct: expressed in transfected cells; host or cells: CHO cells (membrane fraction)
# Experiment: Receptor-binding experiment using CHO cell membranes expressing prostanoid receptor sub-types (3H-PGE2 displacement)
# Conditions: membrane fraction of CHO cells expressing murine EP4; 3H-PGE2 2.5 nM; Ki=IC50/(1+([C]/Kd))
# Description: (i) Experiment for Receptor-Binding Using Cells which Express Prostanoid Receptor Sub-Types
# According to the method of Sugimoto et al. (J. Biol. Chem., 267, 6463–6466 ([…])), CHO cells which expressed prostanoid receptor sub-types (murine EP1, EP2, EP3α, and EP4 respectively) were prepared and used as membrane authentic samples.
# A reaction solution (200 μL) containing the prepared membrane fraction (0.5 mg/ml) and ^3H-PGE2 was incubated at room temperature for an hour. The reaction was terminated with ice cold buffer (3 mL), and the reaction mixture was suction filtrated under reduced pressure through a glass filter (GF/B), on which the binding ^3H-PGE2 was trapped, and the binding radioactivity was measured by means of a liquid scintillator.
# The Kd value was obtained from the Scatchard plots (Ann. N.Y. Acad. Sci., 51, 660 (1949)). Non-specific binding was obtained as the binding in the presence of an excess amount (2.5 μM) of unlabelled PGE2. Measurement of the binding inhibition for ^3H-PGE2 with the compounds of the invention was performed by adding ^3H-PGE2 (2.5 nM) and a series of concentrations of the compounds of the invention. In this reaction, the following buffer was used in all cases. • Buffer: 10 mM potassium phosphate (pH6.0), 1 mM EDTA, 10 mM MgCl2 and 0.1M NaCl.
# Dissociation constant Ki (μM) of each compounds was calculated from the following equation. […]
# T1 sequence (P32240 whole entry): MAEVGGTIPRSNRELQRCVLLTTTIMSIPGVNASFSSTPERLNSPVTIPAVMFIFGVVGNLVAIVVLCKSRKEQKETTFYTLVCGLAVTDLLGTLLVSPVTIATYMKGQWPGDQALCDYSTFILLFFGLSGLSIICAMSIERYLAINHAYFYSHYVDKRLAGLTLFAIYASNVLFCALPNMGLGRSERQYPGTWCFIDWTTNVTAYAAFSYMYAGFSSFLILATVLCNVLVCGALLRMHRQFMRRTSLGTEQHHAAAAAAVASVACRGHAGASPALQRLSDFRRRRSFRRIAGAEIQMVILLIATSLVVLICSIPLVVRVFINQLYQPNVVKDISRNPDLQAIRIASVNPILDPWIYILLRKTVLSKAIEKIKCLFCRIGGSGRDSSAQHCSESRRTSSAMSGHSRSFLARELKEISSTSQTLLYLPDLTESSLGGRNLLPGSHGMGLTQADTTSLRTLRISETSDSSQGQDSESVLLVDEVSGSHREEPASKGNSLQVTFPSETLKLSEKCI
structure (smiles),measurement,value
"Cc1cc(C)cc(C[C@H](O)/C=C/[C@H]2CCC(=O)N2CCc2ccc(C(=O)O)cc2)c1 [Example 5, (15α,13E)-1,6-(1,4-interphenylene)-9-oxo-15-hydroxy-16-(3,5-dimethylphenyl)-2,3,4,5,17,18,19,20-octanol-8-azaprost-13-enoic acid]",Ki,6.4 nM
